Reference: patent US4761409A, “Cephem derivatives” (Sumitomo Pharmaceuticals Company, Limited, priority 1984, dated 1988)
In brackets after ≈: the same amount, converted by molar mass. Blank lines part the entries; values can stand above or below the compound they belong to.

Key:
[1] = test system: Escherichia coli NIHJ JC-2; experiment: in vitro antimicrobial activity test (MIC); assay type: cell-based; conditions: NIHJJC2
[2] = test system: Citrobacter freundii GN346; experiment: in vitro antimicrobial activity test (MIC); assay type: cell-based
[3] = test system: Staphylococcus aureus 209P; experiment: in vitro antimicrobial activity test (MIC); assay type: cell-based
[4] = test system: Staphylococcus epidermidis IAM1296; experiment: in vitro antimicrobial activity test (MIC); assay type: cell-based
[5] = test system: Serratia marcescens X100; experiment: in vitro antimicrobial activity test (MIC); assay type: cell-based
[6] = oral absorbability test: urinary excretion in mice after oral administration; assay type: in vivo; conditions: mouse, urine, dose: 50 mg/kg, read-out: Urinary excretion rate in mice after oral administration
[7] = test system: resistant bacteria which produce β-lactamase; conditions: background, cephem antibiotics for oral administration; cited from earlier work
[8] = test system: bacteria; conditions: background, compared with commercially available cephem antibiotics; cited from earlier work

MIC [1]: 0.1 µg/mL (≈ 0.195 µM)
MIC [2]: 0.78 µg/mL (≈ 1.52 µM)
MIC [3]: 0.1 µg/mL (≈ 0.195 µM)
MIC [4]: 1.56 µg/mL (≈ 3.04 µM)
MIC [5]: 0.78 µg/mL (≈ 1.52 µM)
SMILES: CO/N=C(\C(=O)NC1C(=O)N2C(C(=O)O)=C(CSc3nc(C)ns3)CSC12)c1cscn1 (stereo not drawn) [Example 1, 7-[(Z)-2-Methoxyimino-2-(thiazol-4-yl)acetamido]-3-(3-methyl-1 2,4-thiadiazol-5-yl)thiomethyl-3-cephem-4-carboxylic acid]

MIC [1]: 0.2 µg/mL (≈ 0.401 µM)
MIC [2]: 0.78 µg/mL (≈ 1.56 µM)
MIC [3]: 0.2 µg/mL (≈ 0.401 µM)
MIC [4]: 1.56 µg/mL (≈ 3.13 µM)
MIC [5]: 0.78 µg/mL (≈ 1.56 µM)
SMILES: CO/N=C(\C(=O)NC1C(=O)N2C(C(=O)O)=C(CSc3ncns3)CS[C@H]12)c1cscn1 (stereo partly drawn) [Example 2, 7-[(Z)-2-Methoxyimino-2-(thiazol-4-yl)acetamido]-3-(1,2,4-thiadiazol-5-yl)thiomethyl-3-cephem-4-carboxylic acid]

dose excreted [6]: 32%
SMILES: CCOC(=O)OC(C)OC(=O)C1=C(CSc2nc(C)ns2)CS[C@@H]2C(NC(=O)/C(=N\OC)c3cscn3)C(=O)N12 (stereo partly drawn) [Example 6, 1-Ethoxycarbonyloxyethyl 7-[(Z)-2-methoxyimino-2-(thiazol-4-yl)acetamido]-3-(3-methyl-1,2,4-thiadiazol-5-yl)thiomethyl-3-cephem-4-carboxylate]

dose excreted [6]: 32%
SMILES: CO/N=C(\C(=O)NC1C(=O)N2C(C(=O)OCc3oc(=O)oc3C)=C(CSc3ncns3)CS[C@H]12)c1cscn1 (stereo partly drawn) [Example 15, (5-Methyl-2-oxo-1,3-dioxolen-4-yl)methyl-7-[(Z)-2-methoxyimino-2-(thiazol-4-yl)acetamido]-3-(1,2,4-thiadiazol-5-yl)thiomethyl-3-cephem-4-carboxylate]

SMILES: N[C@@H](C(=O)N[C@@H]1C(=O)N2C(C(=O)O)=C(Cl)CS[C@H]12)c1ccccc1 [cefaclor]
activity on resistant bacteria which produce β-lactamase [7]: ineffective
antimicrobial activity and width of the antimicrobial spectrum [8]: slightly inferior

SMILES: N[C@@H](C(=O)N[C@@H]1C(=O)N2C(C(=O)O)=C(CSc3c[nH]nn3)CS[C@H]12)c1ccc(O)cc1 [cefatrizine]
activity on resistant bacteria which produce β-lactamase [7]: ineffective
antimicrobial activity and width of the antimicrobial spectrum [8]: slightly inferior

SMILES: CC1=C(C(=O)O)N2C(=O)[C@@H](NC(=O)[C@H](N)c3ccccc3)[C@H]2SC1 [cephalexin]
activity on resistant bacteria which produce β-lactamase [7]: ineffective
antimicrobial activity and width of the antimicrobial spectrum [8]: slightly inferior
